Experimental data: PubChem BioAssay (NCI)
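Exposure lasted 48 hours, with cells grown in 96-well plates and compounds tested at five concentrations. The concentration for full growth arrest is given as TGI.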 *1 amine or outer side, *2 acyl side, *3 side chain or, on linkers, in order; H or OH if unused. Where a SMILES comes first, the peptide text is derived from it. Bridges are numbered along the chain shown (N, C = ends). Roman numbers before positions name the chains, in order. [ ]: non-standard residue; d: D form. Actinocin(9to1) = Cc1c2oc3c(C)ccc(C(=O)[*:1])c3nc-2c(C(=O)[*:2])c(N)c1=O; X48 = O=C1CC(C(=O)[*:2])N([*:1])C1; NMeV = CN[CH](C(=O)O)C(C)C; Sar = CNCC(=O)O

Key:
Assay in all cases: inhibition of tumour cell growth, NCI panel, 48 h
SR leukemia = tested on: SR leukemia
BT-549 breast = tested on: BT-549 breast
NCI-H522 lung = tested on: NCI-H522 lung
EKVX NSCLC = tested on: EKVX NSCLC
SF-295 CNS = tested on: SF-295 CNS
RXF 393 renal = tested on: RXF 393 renal
HCT-15 colon = tested on: HCT-15 colon
HS 578T breast = tested on: HS 578T breast
SK-MEL-2 melanoma = tested on: SK-MEL-2 melanoma
OVCAR-4 ovarian = tested on: OVCAR-4 ovarian
SF-539 CNS = tested on: SF-539 CNS
HOP-62 NSCLC = tested on: HOP-62 NSCLC
CCRF-CEM leukemia = tested on: CCRF-CEM leukemia
786-0 renal = tested on: 786-0 renal
SN12C renal = tested on: SN12C renal
KM12 colon = tested on: KM12 colon
OVCAR-3 ovarian = tested on: OVCAR-3 ovarian
HOP-92 NSCLC = tested on: HOP-92 NSCLC
MDA-N = tested on: MDA-N

Compound | TGI (SR leukemia) [µM] | TGI (BT-549 breast) [µM] | TGI (NCI-H522 lung) [µM] | TGI (EKVX NSCLC) [µM] | TGI (SF-295 CNS) [µM] | TGI (RXF 393 renal) [µM] | TGI (HCT-15 colon) [µM] | TGI (HS 578T breast) [µM] | TGI (SK-MEL-2 melanoma) [µM] | TGI (OVCAR-4 ovarian) [µM] | TGI (SF-539 CNS) [µM] | TGI (HOP-62 NSCLC) [µM] | TGI (CCRF-CEM leukemia) [µM] | TGI (786-0 renal) [µM] | TGI (SN12C renal) [µM] | TGI (KM12 colon) [µM] | TGI (OVCAR-3 ovarian) [µM] | TGI (HOP-92 NSCLC) [µM] | TGI (MDA-N) [µM]
O=C(O)C1(C(=O)O)CC1(C(=O)O)C(=O)O | > 100 | > 100 | > 100 | > 100 | > 100 | > 100 | > 100 | > 100 | > 100 | > 100 | > 100 | > 100 | > 100 | > 100 | > 100 | > 100 |  |  | 
CSC(=NCCCCN=C(NS(=O)(=O)c1ccc(Cl)cc1)SC)NS(=O)(=O)c1ccc(Cl)cc1 | > 100 |  |  | > 100 | > 100 |  | > 100 |  | > 100 | > 100 | > 100 | > 100 | > 100 | > 100 | > 100 |  | > 100 | > 100 | > 100
O=C(Cn1cc(-c2ccccc2)nn1)NC1CCCC1 | > 100 | > 100 | > 100 | > 100 | > 100 |  | > 100 |  | > 100 | > 100 | > 100 | > 100 | > 100 | > 100 | > 100 | > 100 |  | > 100 | 
CC1(C)C(O)C[C@]23CCC[C@](C)(C[C@@H](O)C12)C3 (some centres not stated) | > 100 | > 100 | > 100 | > 100 | > 100 |  | > 100 | > 100 | > 100 | > 100 |  | > 100 | > 100 | > 100 | > 100 | > 100 | > 100 | > 100 | 
COc1[nH]c(C(Cl)(Cl)Cl)c(Cl)c(=O)c1Cl | > 100 | > 100 | > 100 | > 100 | > 100 |  | > 100 |  | > 100 | > 100 | > 100 | > 100 | > 100 | > 100 | > 100 | > 100 | > 100 | > 100 | > 100
COC(=O)C[C@@H]1C(C)(C)[C@@H]2O[C@@]34C[C@@H]2C(=O)[C@]1(C)[C@H]3CC[C@@]1(C)[C@H](c2ccoc2)OC(=O)C[C@]14O | > 100 | > 100 | > 100 | > 100 | > 100 |  | > 100 |  | > 100 | > 100 | > 100 | > 100 | > 100 | > 100 | > 100 | > 100 | > 100 | > 100 | > 100
COC1O[C@@H]2CCN3C(=O)[C@@H](OC(=O)c4ccc([N+](=O)[O-])cc4)[C@H]1C23 (some centres not stated) | > 100 |  | > 100 | > 100 | > 100 | > 100 |  | > 100 |  |  | > 100 | > 100 | > 100 | > 100 | > 100 | > 100 | > 100 | > 100 | 
Nc1ncnc2c1ncn2C1C=CC(CP(=O)(O)O)C1 (configuration not stated) | > 100 |  |  | > 100 | > 100 | > 100 | > 100 | > 100 | > 100 | > 100 | > 100 | > 100 |  | > 100 | > 100 | > 100 | > 100 |  | > 100
CCCCCCCC/C=C\CCCCCCC(F)C(=O)O (configuration not stated) | > 12.5 |  | > 12.5 | > 12.5 | > 12.5 | > 12.5 | > 12.5 | > 12.5 | > 12.5 | > 12.5 | > 12.5 | > 12.5 | > 12.5 | > 12.5 | > 12.5 | > 12.5 | > 12.5 | > 12.5 | > 12.5
CC1(C)CC[C@]2(C(=O)O)CC[C@]3(C)C(=CC[C@@H]4[C@@]5(C)C[C@H](O)[C@H](O)[C@@](C)(CO)C5=CC[C@]43C)[C@@H]2C1 | > 100 |  | > 100 | > 100 | > 100 |  | > 100 | > 100 | > 100 | 68.5 | > 100 | > 100 | > 100 | > 100 | > 100 | > 100 | > 100 | > 100 | > 100
COc1ccc(CNc2nc3cc(C(F)(F)F)ccc3nc2C(=O)O)cc1OC | 63.8 | > 100 |  | > 100 | > 100 |  | > 100 |  | 51.8 | > 100 | > 100 | 66.1 | 92.9 | > 100 | 77.9 | > 100 | 58.1 | > 100 | > 100
Cc1ccc2c(=O)cc(-c3cccc4ccccc34)[nH]c2n1 | > 100 | > 94.6 |  | > 100 | > 100 | > 100 | 1.73 | > 91.5 | 2.47 | > 85.1 |  | > 100 | > 100 | > 79.2 | > 100 | 1.98 |  | 32 | 
O=C(C#CP(=O)(O)c1ccccc1)c1ccccc1 | > 100 |  | > 100 | > 100 | > 100 |  | > 100 | > 100 | > 100 | > 100 | > 100 | > 100 |  | > 100 | > 100 | > 100 | > 100 | > 100 | > 100
CC(C)(C)[Si](C)(C)OCCCCC1CC2(S(=O)(=O)C3=CC=C=C=C3)ON1CC2S(=O)(=O)c1ccccc1 (configuration not stated) |  | > 100 |  | > 100 |  | > 100 | > 100 | > 100 | > 100 | > 100 | > 100 | > 100 |  | > 100 | > 100 | > 100 | > 100 | > 100 | > 100
CCOP(=O)(OCC)C1CC(O)CN1OC(=O)C(C)(C)C (configuration not stated) | > 100 |  |  | > 100 | > 100 |  | > 100 | > 100 | > 100 | > 100 |  | > 100 | > 100 | > 100 | > 100 | > 100 | > 100 |  | > 100
C[C@]12CCC(=O)C=C1CC[C@@H]1[C@@H]2CC[C@]2(C)C(=O)[C@H](n3ccnc3)C[C@@H]12 | > 100 |  | > 100 | > 100 | > 100 | > 100 | > 100 | > 100 | > 100 | > 100 | > 100 |  | > 100 | > 100 | > 100 | > 100 |  | > 100 | > 100
O=C1C2=Cc3ccccc3OC2(O)Oc2cc(O)ccc21 (configuration not stated) |  | > 100 |  | > 100 | > 100 | > 100 | > 100 |  | > 100 |  | > 100 | > 100 | 88.7 | > 100 | > 100 | > 100 | > 100 | > 100 | > 100
Cc1cc2c(cc1Cl)SC(N/N=C(\N)c1ccc(Cl)cc1)=NS2(=O)=O |  | > 100 | > 100 | > 100 | > 100 | > 100 | > 100 | > 100 |  | > 100 | 84.2 | > 100 | > 100 | > 100 | > 100 | > 100 | > 100 | 58.9 | 
Cc1c2oc3c(C)ccc(C(=O)NC4C(=O)NC(C(C)C)C(=O)N5CC(=O)CC5C(=O)N(C)CC(=O)N(C)C(C(C)C)C(=O)OC4C)c3nc-2c(C(=O)NC2C(=O)NC(C(C)C)C(=O)N3CC(=O)CC3C(=O)N(C)CC(=O)N(C)C(C(C)C)C(=O)OC2C)c(N)c1=O (configuration not stated) (I: TV[X48][Sar][NMeV] / II: TV[X48][Sar][NMeV]; ester I:1-I:C, II:1-II:C; linker I:N-II:N via Actinocin(9to1); configuration not given here) | > 1 |  |  | > 1 | > 1 | > 1 | > 1 |  | > 1 | > 1 | > 1 | > 1 | > 1 | > 1 | > 1 |  | > 1 | > 1 | > 1
COc1cccc2c(NNc3ccccc3)c3ccc([N+](=O)[O-])cc3nc12 | 50.5 | 71.4 | > 100 | > 100 | > 100 | > 100 | > 100 |  | > 100 | > 100 | > 100 | > 100 | > 100 | 73.3 | > 100 | 46.1 | > 100 | > 100 | > 100
O=C1c2ccccc2-c2nc3ccc(O)cc3n21 | > 100 | > 100 | > 100 | > 100 | > 100 | > 100 | > 100 |  | > 100 | > 100 | > 100 | > 100 | > 100 | > 100 | > 100 | > 100 | > 100 | > 100 | > 100
NCC#CCNCCCN1CC1 | > 100 |  | > 100 | > 100 | > 100 |  | > 100 | > 100 | > 100 | > 100 | > 100 | > 100 |  | > 100 | > 100 | > 100 | > 100 | > 100 | > 100
O=C1OCC2(CO1)CC1C=CC2C1 (configuration not stated) | > 100 |  | > 100 | > 100 | > 100 | > 100 | > 100 | > 100 | > 100 | > 100 | > 100 | > 100 |  | > 100 | > 100 | > 100 | > 100 | > 100 | > 100
CCOC(=O)c1nc2ccccc2nc1NCc1ccc(OC)cc1 | > 100 | > 100 | > 100 | > 100 | > 100 | 71.5 | > 100 | > 100 |  | > 100 | > 100 | > 100 | > 100 | > 100 |  | > 100 | > 100 | > 100 | 
OC(c1cccnc1)C(F)(F)c1nc2ccccc2o1 (configuration not stated) | > 100 | > 100 |  | > 100 |  | > 100 | > 100 | > 100 | > 100 | > 100 | > 100 | > 100 | > 100 | > 100 |  | > 100 |  | > 100 | 
CC(C)OCC(O)COc1ccc2ccc(=O)oc2c1 (configuration not stated) |  |  | > 100 | > 100 | > 100 |  | > 100 | > 100 |  | > 100 |  | > 100 | > 100 | > 100 | > 100 | > 100 | > 100 | > 100 | > 100
Cc1ccc(OCC2OC(C#N)C(Oc3ccc(C)cc3)C2Oc2ccc(C)cc2)cc1 (configuration not stated) | > 100 | > 100 | > 100 | > 100 | > 100 | > 100 | > 100 | > 100 | > 100 | > 100 | > 100 | > 100 | > 100 | > 100 | > 100 | > 100 | > 100 |  | 
